Measurements published in patent publication US9511064B2, “Combination therapy for the treatment of cancer and immunosuppression” (Basilea Pharmaceutica AG, priority 2012, dated 2016).
Read-outs that look alike come from different tables or passages of the source.

Key:
HL60 tumor cells = assay: AlamarBlue conversion cell proliferation assay, HL60 cell line; assay type: cell-based
Protocol: (§1) The in vitro anti-proliferative activity of compounds of formula (I), metformin and combinations thereof is tested in an AlamarBlue conversion cell proliferation assay (Promega) on HL60 tumor cells and the mouse mast cell line 6.5 (Colombi et al., Oncogene 2011, 30:1551-65). Cells are seeded into 96-well microtiter plates (seeding cell density is 7,000 cells per well in 150 uL Iscove's medium) and test compounds are added (compounds of formula (I) are added from a 10 mM stock solution in DMSO, metformin from a freshly prepared 1 M solution in culture medium). Plates are incubated for 3 days at 37°, 5% CO2 and proliferation is determined by AlamarBlue staining (0.1 vol % added to cultures and incubated for further 4-5 hours). The conversion of AlamarBlue is proportional to live cell number and is read with a fluorescence plate reader (Ex/Em 535/595 nm). Growth is normalized to the untreated controls.

mouse mast cell line 6.5 = assay: AlamarBlue conversion cell proliferation assay, 6.5 cell line; assay type: cell-based
Protocol: as §1

[1] = read-out: concentration that inhibits the proliferation of cells by approximately 50% when combined with 4 mM metformin, HL60 cell line, 3 days incubation
[2] = read-out: concentration that inhibits the proliferation of cells by approximately 50% when combined with 4 mM metformin, 6.5 cell line, 3 days incubation
[3] = combined with 4 mM metformin, 3 days incubation, read-out: concentration that inhibits the proliferation of cells by approximately 50% when combined with 4 mM metformin, HL60 cell line
[4] = combined with 4 mM metformin, 3 days incubation, read-out: concentration that inhibits the proliferation of cells by approximately 50% when combined with 4 mM metformin, 6.5 cell line

Row | Structure (SMILES) | IC50 (HL60 tumor cells; [1]) | IC50 (mouse mast cell line 6.5; [2]) | IC50 (HL60 tumor cells; [3]) | IC50 (mouse mast cell line 6.5; [4])
1 | COC(=O)[C@H]1[C@H]2C[C@@H]3c4[nH]c5cc(OC)ccc5c4CCN3C[C@H]2C[C@@H](OC(=O)c2cc(OC)c(OC(=O)OCc3ccncc3)c(OC)c2)[C@@H]1OC [Example 6, methyl (1R,15S,17R,18R,19S,20S)-17-[(3,5-dimethoxy-4-{[(pyridin-4-ylmethoxy)carbonyl]oxy}phenyl)carbonyloxy]-6,18-dimethoxy-3,13-diazapentacyclo[11.8.0.0^2,10.0^4,9.0^15,20]henicosa-2(10),4,6,8-tetraene-19-carboxylate] | 2.5 µM | 2.5 µM | – | –
2 | COC(=O)[C@H]1[C@H]2C[C@@H]3c4[nH]c5cc(OC)ccc5c4CCN3C[C@H]2C[C@@H](OC(=O)c2cc(OC)c(OC(=O)OCc3cccnc3)c(OC)c2)[C@@H]1OC [Example 7, methyl (1R,15S,17R,18R,19S,20S)-17-[(3,5-dimethoxy-4-{[(pyridin-3-ylmethoxy)carbonyl]oxy}phenyl)carbonyloxy]-6,18-dimethoxy-3,13-diazapentacyclo[11.8.0.0^2,10.0^4,9.0^15,20]henicosa-2(10),4,6,8-tetraene-19-carboxylate] | – | – | 2 µM | 2.5 µM
3 | COC(=O)[C@H]1[C@H]2C[C@@H]3c4[nH]c5cc(OC)ccc5c4CCN3C[C@H]2C[C@@H](OC(=O)c2cc(OC)c(OC(=O)OCc3cc(OC)cc(OC)c3)c(OC)c2)[C@@H]1OC [Example 8, methyl (1R,15S,17R,18R,19S,20S)-17-{[4-({[(3,5-dimethoxyphenyl)methoxy]carbonyl}oxy)-3,5-dimethoxyphenyl]carbonyloxy}-6,18-dimethoxy-3,13-diazapentacyclo[11.8.0.0^2,10.0^4,9.0^15,20]henicosa-2(10),4,6,8-tetraene-19-carboxylate] | – | – | 4 µM | 5 µM
4 | COC(=O)[C@H]1[C@H]2C[C@@H]3c4[nH]c5cc(OC)ccc5c4CCN3C[C@H]2C[C@@H](OC(=O)c2cc(OC)c(OC(=O)OCc3ccc(Cl)cc3)c(OC)c2)[C@@H]1OC [Example 9, methyl (1R,15S,17R,18R,19S,20S)-17-{[4-({[(4-chlorophenyl)methoxy]carbonyl}oxy)-3,5-dimethoxyphenyl]carbonyloxy}-6,18-dimethoxy-3,13-diazapentacyclo[11.8.0.0^2,10.0^4,9.0^15,20]henicosa-2(10),4,6,8-tetraene-19-carboxylate] | – | – | 4 µM | 4 µM
5 | COC(=O)[C@H]1[C@H]2C[C@@H]3c4[nH]c5cc(OC)ccc5c4CCN3C[C@H]2C[C@@H](OC(=O)c2cc(OC)c(OC(=O)OCc3cc(Cl)cc(Cl)c3)c(OC)c2)[C@@H]1OC [Example 10, methyl (1R,15S,17R,18R,19S,20S)-17-{[4-({[(3,5-dichlorophenyl)methoxy]carbonyl}oxy)-3,5-dimethoxyphenyl]carbonyloxy}-6,18-dimethoxy-3,13-diazapentacyclo[11.8.0.0^2,10.0^4,9.0^15,20]henicosa-2(10),4,6,8-tetraene-19-carboxylate] | – | – | 1 µM | 1 µM
6 | CCOC(=O)Oc1c(OC)cc(C(=O)O[C@@H]2C[C@@H]3CN4CCc5c([nH]c6cc(OC(=O)OC(C)(C)C)ccc56)[C@H]4C[C@@H]3[C@H](C(=O)OC)[C@H]2OC)cc1OC [Example 12, methyl (1R,15S,17R,18R,19S,20S)-6-{[(tert-butoxy)carbonyl]oxy}-17-({4-[(ethoxycarbonyl)oxy]-3,5-dimethoxyphenyl}carbonyloxy)-18-methoxy-3,13-diazapentacyclo[11.8.0.0^2,10.0^4,9.0^15,20]henicosa-2(10),4,6,8-tetraene-19-carboxylate] | 1.5 µM | 1.5 µM | – | –
7 | CCOC(=O)Oc1c(OC)cc(C(=O)O[C@@H]2C[C@@H]3CN4CCc5c([nH]c6cc(O)ccc56)[C@H]4C[C@@H]3[C@H](C(=O)OC)[C@H]2OC)cc1OC [Example 13, methyl (1R,15S,17R,18R,19S,20S)-17-({4-[(ethoxycarbonyl)oxy]-3,5-dimethoxyphenyl}carbonyloxy)-6-hydroxy-18-methoxy-3,13-diazapentacyclo[11.8.0.0^2,10.0^4,9.0^15,20]henicosa-2(10),4,6,8-tetraene-19-carboxylate] | – | – | 2 µM | 1 µM
8 | CCOC(=O)Oc1c(OC)cc(C(=O)O[C@@H]2C[C@@H]3CN4CCc5c([nH]c6cc(OC(C)=O)ccc56)[C@H]4C[C@@H]3[C@H](C(=O)OC)[C@H]2OC)cc1OC [Example 14, methyl (1R,15S,17R,18R,19S,20S)-6-(acetyloxy)-17-({4-[(ethoxycarbonyl)oxy]-3,5-dimethoxyphenyl}carbonyloxy)-18-methoxy-3,13-diazapentacyclo[11.8.0.0^2,10.0^4,9.0^15,20]henicosa-2(10),4,6,8-tetraene-19-carboxylate] | – | – | 2 µM | 1.5 µM
9 | CCOC(=O)Oc1c(OC)cc(C(=O)O[C@@H]2C[C@@H]3CN4CCc5c([nH]c6cc(OC(=O)c7ccccc7)ccc56)[C@H]4C[C@@H]3[C@H](C(=O)OC)[C@H]2OC)cc1OC [Example 15, methyl (1R,15S,17R,18R,19S,20S)-6-(benzoyloxy)-17-({4-[(ethoxycarbonyl)oxy]-3,5-dimethoxyphenyl}carbonyloxy)-18-methoxy-3,13-diazapentacyclo[11.8.0.0^2,10.0^4,9.0^15,20]henicosa-2(10),4,6,8-tetraene-19-carboxylate] | – | – | 2 µM | 1.5 µM
10 | CCOC(=O)Oc1c(OC)cc(C(=O)O[C@@H]2C[C@@H]3CN4CCc5c([nH]c6cc(OC(=O)CN)ccc56)[C@H]4C[C@@H]3[C@H](C(=O)OC)[C@H]2OC)cc1OC [Example 16, methyl (1R,15S,17R,18R,19S,20S)-6-[(2-aminoacetyl)oxy]-17-({4-[(ethoxycarbonyl)oxy]-3,5-dimethoxyphenyl}carbonyloxy)-18-methoxy-3,13-diazapentacyclo[11.8.0.0^2,10.0^4,9.0^15,20]henicosa-2(10),4,6,8-tetraene-19-carboxylate] | 2 µM | 1 µM | – | –
11 | CCOC(=O)Oc1c(OC)cc(C(=O)O[C@@H]2C[C@@H]3CN4CCc5c([nH]c6cc(OC(=O)CNC(C)=O)ccc56)[C@H]4C[C@@H]3[C@H](C(=O)OC)[C@H]2OC)cc1OC [Example 17, methyl (1R,15S,17R,18R,19S,20S)-6-[(2-acetamidoacetyl)oxy]-17-({4-[(ethoxycarbonyl)oxy]-3,5-dimethoxyphenyl}carbonyloxy)-18-methoxy-3,13-diazapentacyclo[11.8.0.0^2,10.0^4,9.0^15,20]henicosa-2(10),4,6,8-tetraene-19-carboxylate] | – | – | 1.5 µM | 1 µM
12 | CCOC(=O)Oc1c(OC)cc(C(=O)O[C@@H]2C[C@@H]3CN4CCc5c([nH]c6cc(OC(=O)CNC(=O)c7ccccc7)ccc56)[C@H]4C[C@@H]3[C@H](C(=O)OC)[C@H]2OC)cc1OC [Example 18, methyl (1R,15S,17R,18R,19S,20S)-17-({4-[(ethoxycarbonyl)oxy]-3,5-dimethoxyphenyl}carbonyloxy)-18-methoxy-6-{[2-(phenylformamido)acetyl]oxy}-3,13-diazapentacyclo[11.8.0.0^2,10.0^4,9.0^15,20]henicosa-2(10),4,6,8-tetraene-19-carboxylate] | – | – | 1.5 µM | 1 µM
